Measurements: patent US11865158B2, “Process and composition matter of nanoparticle formulation for systemic treatment of sepsis” (PURDUE RESEARCH FOUNDATION, priority 2019, dated 2024)

What was measured:
[1] = system: LPS-induced NF-kB/AP-1 activation in THP1-XBlue-MD2-CD14 cells; assay: In vitro anti-LPS activity, SEAP reporter assay, LPS pretreated and supernatant added to cells; assay type: cell-based, human; conditions: 10 ng/mL LPS, equivalent to PMB 9.5-18.9 μg/mL
Description: To investigate if D-TZP can neutralize LPS, a reporter cell line responding to LPS was incubated with LPS and free PMB or D-TZP's (with different amounts of PMB). THP1-XBlue-MD2-CD14, derived from the human monocytic THP-1 cell line, overexpresses MD2 and CD14 to amplify the response to TLR4 agonist LPS. Color change of the Quanti-Blue reagent (NF-kB/AP-1-inducible secreted embryonic alkaline phosphatase (SEAP) reporter protein) reflects NF-kB/AP-1 activation due to LPS. LPS-induced SEAP production was measured at 620 nm. The reporter cells with 10 ng/mL of LPS expressed a high level of SEAP as compared to non-challenged cells. […] A supernatant was obtained from each mixture to separate unbound LPS and added to THP1-XBlue-MD2-CD14 cells.
In vitro anti-LPS activity. Five microliters of LPS ([…]) was mixed with 15 μL of free PMB, D-TZP, or TZP at different concentrations in a flat-bottom 96-well plate. THP1-XBlue-MD2-CD14 cell suspension (10^5 cells in 180 μL) was then added to the mixtures. After 24 h incubation, cells were centrifugated at 233 rcf for 5 min. Twenty microliters of the cell medium was mixed with the Quanti-Blue reagent. After 2 h incubation, the color was measured at 620 nm by a Spectra Max M3 microplate reader (Molecular Devices, Sunnyvale, CA). […] The medium was analyzed in the same manner as above.

THP-1 monocytes = assay: Cytotoxicity by propidium iodide staining and flow cytometry; assay type: cell-based, human; conditions: equivalent to 50-150 μg/mL PMB, 24 h
Description: As a cationic polypeptide, PMB is known to be effective in neutralizing LPS as early as in 1967, but its systemic application is hampered by dose-limiting nephro- and neurotoxicity. PMB manifests the toxicity via the increased membrane permeability, resulting in increased influx of ions and water and subsequent cell swelling and lysis. To test if the toxicity can be reduced by supplying PMB as a NP-bound form, THP-1 monocytes or J774a.1 macrophages were incubated with D-TZP or free PMB at a concentration equivalent to 50-150 μg/mL PMB for 24 h, stained with propidium iodide (PI), which penetrates damaged cell membrane but not intact membrane, and analyzed with flow cytometry. […] Substantial reduction of membrane damage is attributable to the surface-bound ZWC, which provides a negatively charged cloud beyond the remit of PMB due to the large size, attenuating direct exposure of PMB to cell membrane.
Cytotoxicity of PMB and D-TZP. Cytotoxic concentration range of free PMB was first determined with THP1-XBlue-MD2-CD14 cells by the MTT assay. […] The PI fluorescence of 10,000 cells was measured with the BD Accuri C6 flow cytometer (BD Biosciences, San Jose, CA) via the FL-2 detector. Nanoparticles and cell debris were excluded by gating, but all cell population (dead or alive) was analyzed. […]

LPS-induced sepsis = assay: Therapeutic efficacy in LPS-induced endotoxemia (sepsis) model; assay type: in vivo, C57BL/6 mice; conditions: free PMB at the respective LD50 (20 mg/kg for IP and 5 mg/kg for IV)
Description: The therapeutic efficacy of D-TZP was tested in a mouse model of sepsis. C57BL/6 male mice were given IP injection of 20 mg/kg LPS, which causes systemic inflammation similar to initial clinical features of sepsis. TZP or D-TZP was administered in three regimens:
Therapeutic efficacy in LPS-induced endotoxemia model. 6-8 week-old C57BL/6 mice (male and female) were challenged with an intraperitoneal injection of 20 mg/kg LPS solution (5% dextrose) via 20G catheter (Exel International Disposable Safelet I.V.), which causes systemic inflammation similar to initial clinical features of sepsis^17,19. […] A vehicle control (5% dextrose) or an equivalent dose of free PMB were given in the same manner for comparison. […] Buprenorphine (0.05 mg/kg) was injected subcutaneously shortly after the treatment and every 2-12 h as the signs of discomfort were observed. The body temperature was measured with a Pocket Infrared Thermometer (Braintree Scientific, Inc., Braintree, MA) at each observation, and the body weight was recorded at each observation. When an animal was found dead at the time of observation, the time of death was estimated to be in the halfway of the last two observation times. When animals were lethargic and cold at the time of observation, the animals were euthanized by CO2 asphyxiation. The mouse survival was monitored for 2 weeks.

polymyxin B [PMB] was tested, and the “SEAP production, LPS pretreated for 1 h, supernatant added to cells” value [1] was “significant reduction in SEAP production”, the “PI fluorescence (membrane damage)” value (THP-1 monocytes) was “dose-dependent PI fluorescence signal” and the “protection of challenged animals” value (LPS-induced sepsis) was “did not protect the challenged animals”.
